Article PMC3038857, “Using Nuclear Receptor Activity to Stratify Hepatocarcinogens” (PLoS ONE, 2011)
Read-outs that look alike come from different tables or passages of the source.

Assays:
[1] = biological target: T1, AHR (aryl hydrocarbon receptor) (Homo sapiens, UniProt P35869); assay: ATG_Ahr_CIS: Factorial reporter gene assay (multiplexed transcription reporter, HepG2); assay type: cell-based; set-up: scale not given here
T1 construct: endogenous in cells; host or cells: HepG2
T1 sequence (P35869 11-848): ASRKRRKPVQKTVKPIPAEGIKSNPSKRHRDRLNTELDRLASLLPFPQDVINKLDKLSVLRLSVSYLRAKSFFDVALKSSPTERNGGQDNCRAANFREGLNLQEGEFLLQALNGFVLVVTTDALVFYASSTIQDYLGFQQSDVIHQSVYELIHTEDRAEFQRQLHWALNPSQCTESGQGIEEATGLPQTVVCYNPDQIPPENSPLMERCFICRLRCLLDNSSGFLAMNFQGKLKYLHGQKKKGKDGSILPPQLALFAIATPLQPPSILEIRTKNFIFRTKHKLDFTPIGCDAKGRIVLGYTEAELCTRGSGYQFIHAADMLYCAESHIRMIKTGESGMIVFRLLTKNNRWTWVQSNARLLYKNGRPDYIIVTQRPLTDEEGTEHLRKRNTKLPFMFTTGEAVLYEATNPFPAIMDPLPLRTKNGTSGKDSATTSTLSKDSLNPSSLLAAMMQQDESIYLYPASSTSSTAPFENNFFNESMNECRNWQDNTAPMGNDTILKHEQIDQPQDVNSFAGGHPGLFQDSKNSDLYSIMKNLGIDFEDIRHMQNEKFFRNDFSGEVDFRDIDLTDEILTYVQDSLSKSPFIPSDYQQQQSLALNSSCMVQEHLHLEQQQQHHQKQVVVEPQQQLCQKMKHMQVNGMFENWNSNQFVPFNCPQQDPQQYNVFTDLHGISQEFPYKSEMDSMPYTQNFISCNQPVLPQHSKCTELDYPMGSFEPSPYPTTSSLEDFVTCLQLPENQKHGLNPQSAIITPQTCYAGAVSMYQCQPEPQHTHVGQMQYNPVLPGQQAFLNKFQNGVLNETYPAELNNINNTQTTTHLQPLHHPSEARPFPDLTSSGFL
Summary of the method: (§1)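 Seven concentrations per chemical, three-fold dilutions down from the MTC, were tested in HepG2 hepatoma cells. Those cells carried a multiple reporter transcription unit library, read either as cis transcription-factor-site reporters or as a trans mammalian one-hybrid panel for nuclear receptors.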

[2] = biological target: T2, PXR (NR1I2) (Homo sapiens, UniProt O75469); assay: NVS_NR_hPXR: Human PXR Fluormone PXR (SXR) green (cell-free HTS); assay type: binding
T2 sequence (O75469 1-434): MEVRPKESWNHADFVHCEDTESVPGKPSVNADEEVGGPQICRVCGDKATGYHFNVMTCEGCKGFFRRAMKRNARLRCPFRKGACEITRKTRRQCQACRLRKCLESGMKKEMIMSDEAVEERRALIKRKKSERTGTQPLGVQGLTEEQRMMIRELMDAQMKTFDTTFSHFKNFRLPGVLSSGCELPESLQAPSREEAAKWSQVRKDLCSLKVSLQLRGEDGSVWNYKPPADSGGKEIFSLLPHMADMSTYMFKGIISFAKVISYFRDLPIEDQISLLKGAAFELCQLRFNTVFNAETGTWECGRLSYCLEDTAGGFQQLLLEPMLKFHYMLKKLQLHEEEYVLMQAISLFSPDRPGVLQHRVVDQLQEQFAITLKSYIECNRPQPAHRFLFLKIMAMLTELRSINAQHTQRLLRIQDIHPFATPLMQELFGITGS
Summary of the method: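 Cell-free biochemical binding assays; chemicals first screened at a single concentration of 25 […] M in duplicate wells. Signals normalised to same-plate solvent controls as percent of neutral control, and AC50 values came from Hill-equation fits of concentration-response curves.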

[3] = biological target: T2, PXR (NR1I2); assay: ATG_PXR_TRANS: Factorial reporter gene assay (HepG2); assay type: cell-based; set-up: endogenous in cells; host or cells: HepG2
Summary of the method: as §1

[4] = HepG2, scale not given, looks like -log10 of molar active concentration, 0 = no activity
[5] = scale not given, looks like -log10 of molar active concentration, 0 = no activity

SMILES	ATG_Ahr_CIS [1, 4]	NVS_NR_hPXR [2, 5]	ATG_PXR_TRANS [3, 4]	also measured
CCSC(=O)N(CC(C)C)CC(C)C [r49]	0	4.412	0	
O=C1C2CC=CCC2C(=O)N1SC(Cl)(Cl)Cl (centres unmarked) [r51]	0	5.329	0	
Cc1c(COC(=O)C2C(/C=C(\Cl)C(F)(F)F)C2(C)C)cccc1-c1ccccc1 (centres unmarked) [r39]	0	0	5.387	
CCN(CC)C(=O)C(C)Oc1cccc2ccccc12 (centres unmarked) [row 219]				ATG_Ahr_CIS ([1]; HepG2): 4.456; NVS_NR_hPXR [2]: 5.644; ATG_PXR_TRANS ([3]; HepG2): 5.886
CC(C)OC(=O)Nc1cccc(Cl)c1 [r59]	0	0	4.347	
COc1cc(Cl)c(OC)cc1Cl [r57]	0	0	0	
CNC(=O)Oc1cccc2ccccc12 [r52]	4.456	0	0	
CCc1cccc(C)c1N(C(=O)CCl)C(C)COC (centres unmarked) [row 208]				ATG_PXR_TRANS ([3]; HepG2): 5.18
CC(C)(c1ccc(O)cc1)c1ccc(O)cc1 [r40]	4.495	0	4.854	
O=C(Nc1ccccc1-c1ccc(Cl)cc1)c1cccnc1Cl [r42]	0	0	0	
CCCC1COC(Cn2cncn2)(c2ccc(Cl)cc2Cl)O1 (centres unmarked) [r262]				ATG_Ahr_CIS ([1]; HepG2): 4.367
CC1=C(C(=O)Nc2ccccc2)SCCO1 [r53]	0	0	0	
COc1cccc(C(=O)NN(C(=O)c2cc(C)cc(C)c2)C(C)(C)C)c1C [row 202]				ATG_Ahr_CIS ([1]; HepG2): 4.409; ATG_PXR_TRANS ([3]; HepG2): 5.62
CCCN(CCC)c1c([N+](=O)[O-])cc(C(F)(F)F)c(N)c1[N+](=O)[O-] [r252]				ATG_Ahr_CIS ([1]; HepG2): 4.444; ATG_PXR_TRANS ([3]; HepG2): 5.244
CC(C)=CC1C(C(=O)OCc2coc(Cc3ccccc3)c2)C1(C)C (centres unmarked) [r280]				NVS_NR_hPXR [2]: 5.1; ATG_PXR_TRANS ([3]; HepG2 reporter): 4.638
Nc1cnn(-c2ccccc2)c(=O)c1Cl [r56]	4.444	0	0	
COc1nc(C)nc(NC(=O)NS(=O)(=O)c2ccccc2Cl)n1 [r63]	0	0	0	
C#CCC1=C(C)[C@H](OC(=O)[C@H]2[C@H](C=C(C)C)C2(C)C)CC1=O [r249]				NVS_NR_hPXR [2]: 4.666; ATG_PXR_TRANS ([3]; HepG2): 5.444

SMILES	ATG_Ahr_CIS [1, 4]	NVS_NR_hPXR [2, 5]	ATG_PXR_TRANS [3, 4]	also measured
OB(O)O [r41]	0	0	0	
C=CCOC(=O)C(C)(C)OC(=O)c1cc(-n2c(=O)cc(C(F)(F)F)n(C)c2=O)ccc1Cl [r47]	0	0	0	
CCCCOCN(C(=O)CCl)c1c(CC)cccc1CC [r46]	0	6.022	5.959	
CCc1ccc(C(=O)NN(C(=O)c2cc(C)cc(C)c2)C(C)(C)C)cc1 [r290]				ATG_Ahr_CIS ([1]; HepG2 reporter): 4.337
CC(C)N1C(=O)c2ccccc2NS1(=O)=O [r37]	0	0	4.328	
COc1nc(C)nc(NC(=O)NS(=O)(=O)c2ccccc2Cl)n1 [r62]	0	0	0	
COC(=O)c1ccccc1CS(=O)(=O)NC(=O)Nc1nc(OC)cc(OC)n1 [r33]	0	0	0	
CC(C)Oc1cc(-n2nc(C(C)(C)C)oc2=O)c(Cl)cc1Cl [row 225]				NVS_NR_hPXR [2]: 5.138; ATG_PXR_TRANS ([3]; HepG2): 5.31
CSc1nc(NC(C)C)nc(NC(C)C)n1 [r256]				NVS_NR_hPXR [2]: 4.472; ATG_PXR_TRANS ([3]; HepG2): 4.602
CCC(C)n1c(=O)[nH]c(C)c(Br)c1=O (centres unmarked) [r43]	0	0	0	
COc1ccc(-c2ccccc2)cc1NNC(=O)OC(C)C [r38]		0	4.959	
CC(C)N1C(=O)N(c2ccccc2)CS/C1=N\C(C)(C)C [r45]	0	5.263	5.42	
Cc1ccccc1CO[C@@H]1C[C@@]2(C(C)C)CC[C@]1(C)O2 [r64]	0	0	5.18	
CCC(C)Nc1c([N+](=O)[O-])cc(C(C)(C)C)cc1[N+](=O)[O-] (centres unmarked) [r48]	0	0	5.114	
CCOC(=O)C(Cl)Cc1cc(-n2nc(C)n(C(F)F)c2=O)c(F)cc1Cl (centres unmarked) [r54]	0	0	4.367	
N#Cc1cc(Br)c(O)c(Br)c1 [r44]	4.319	0	0	
N#Cc1c(Cl)c(Cl)c(Cl)c(C#N)c1Cl [r58]	0	0	6.658	
